{"source": "paper PMC7099768", "about": "“A positron emission tomography imaging study to confirm target engagement in the lungs of patients with idiopathic pulmonary fibrosis following a single dose of a novel inhaled αvβ6 integrin inhibitor” (Respiratory Research, 2020)", "key": {"[1]": {"conditions": "single doses up to 3000 mcg; cited from earlier work"}}, "data": [{"smiles": "Cc1cc(C)n(-c2cccc([C@H](CC(=O)O)CN3CC[C@@H](CCc4ccc5c(n4)NCCC5)C3)c2)n1", "note": "[GSK3008348, (S)-3-(3-(3,5-Dimethyl-1 H-pyrazol-1-yl)phenyl)-4-((R)-3-(2-(5,6,7,8-tetrahydro-1,8-naphthyridin-2-yl)ethyl)pyrrolidin-1-yl) butanoic acid]", "values": [{"measurement": "Tolerability in healthy participants", "setting": "[1]", "value": "well tolerated"}, {"measurement": "Diarrhoea, n (%)", "setting": "1000 mcg nebulised, N=5", "value": "0 n (%)"}, {"measurement": "Headache, n (%)", "setting": "1000 mcg nebulised, N=5", "value": "1 (20) n (%)"}, {"measurement": "Number of participants with any AE, n (%)", "setting": "1000 mcg nebulised, N=5", "value": "3 (60) n (%)"}, {"measurement": "Urinary tract infection, n (%)", "setting": "1000 mcg nebulised, N=5", "value": "1 (20) n (%)"}, {"measurement": "Intensity and treatment relation of AEs", "setting": "single nebulised 1000 mcg doses", "value": "All AEs were mild in intensity and none were considered treatment related"}]}]}
